Laboratory results reported in patent US11739098B2 (BRISTOL-MYERS SQUIBB COMPANY, priority 2017, dated 2023).

Legend:
Type in all cases: cell-based
[1] = biological target: T1, human TLR7 (Homo sapiens, UniProt Q9NYK1); assay: TLR7 inhibition reporter assay (HEK-Blue cells, SEAP reporter, gardiquimod stimulation); details: HEK-Blue cells overexpressing human TLR7, SEAP reporter, gardiquimod 7.5 μM
T1 construct: host or cells: HEK-Blue cells (HEK293-derived reporter line)
T1 sequence (Q9NYK1 27-1049): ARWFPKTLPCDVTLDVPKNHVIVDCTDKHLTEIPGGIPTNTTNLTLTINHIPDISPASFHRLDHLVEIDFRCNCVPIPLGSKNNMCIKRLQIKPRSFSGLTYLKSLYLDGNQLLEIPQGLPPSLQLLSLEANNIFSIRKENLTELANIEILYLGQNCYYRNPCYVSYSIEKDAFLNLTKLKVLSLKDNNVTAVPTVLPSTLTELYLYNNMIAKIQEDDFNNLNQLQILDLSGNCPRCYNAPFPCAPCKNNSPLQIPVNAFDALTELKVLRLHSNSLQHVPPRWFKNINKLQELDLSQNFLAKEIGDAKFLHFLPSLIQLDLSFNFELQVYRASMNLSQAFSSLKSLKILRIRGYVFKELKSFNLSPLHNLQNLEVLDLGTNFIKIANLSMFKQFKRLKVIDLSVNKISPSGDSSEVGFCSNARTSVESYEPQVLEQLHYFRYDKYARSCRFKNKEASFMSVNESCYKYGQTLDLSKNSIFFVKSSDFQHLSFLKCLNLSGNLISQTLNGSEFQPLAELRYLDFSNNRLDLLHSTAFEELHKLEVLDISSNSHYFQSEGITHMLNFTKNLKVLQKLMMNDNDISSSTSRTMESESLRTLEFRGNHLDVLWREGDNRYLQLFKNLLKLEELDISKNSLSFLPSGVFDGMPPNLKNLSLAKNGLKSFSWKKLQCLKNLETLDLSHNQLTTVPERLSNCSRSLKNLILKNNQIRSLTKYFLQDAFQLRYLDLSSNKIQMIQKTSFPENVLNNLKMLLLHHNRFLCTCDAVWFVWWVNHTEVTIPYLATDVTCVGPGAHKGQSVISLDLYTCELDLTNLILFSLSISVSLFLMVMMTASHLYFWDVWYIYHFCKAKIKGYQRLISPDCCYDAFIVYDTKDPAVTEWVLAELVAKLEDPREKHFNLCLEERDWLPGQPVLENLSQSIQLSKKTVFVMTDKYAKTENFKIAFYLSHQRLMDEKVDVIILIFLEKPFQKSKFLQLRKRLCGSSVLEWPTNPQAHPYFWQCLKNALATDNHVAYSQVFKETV
Outline: (§1)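 After 22 h at 37 °C, SEAP secretion was measured from human TLR7-, TLR8- or TLR9-expressing HEK-Blue reporter cells given compound (0.05 nM–50 μM) 30 min before agonist: 7.5 μM gardiquimod, 15.9 μM R848 or 5 nM ODN2006 respectively. Percent inhibition referenced to agonist-plus-DMSO and known-inhibitor wells.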

[2] = biological target: T2, human TLR8 (Homo sapiens, UniProt Q9NR97); assay: TLR8 inhibition reporter assay (HEK-Blue cells, SEAP reporter, R848 stimulation); details: HEK-Blue cells overexpressing human TLR8, SEAP reporter, R848 15.9 μM
T2 construct: host or cells: HEK-Blue cells (HEK293-derived reporter line)
T2 sequence (Q9NR97 27-1041): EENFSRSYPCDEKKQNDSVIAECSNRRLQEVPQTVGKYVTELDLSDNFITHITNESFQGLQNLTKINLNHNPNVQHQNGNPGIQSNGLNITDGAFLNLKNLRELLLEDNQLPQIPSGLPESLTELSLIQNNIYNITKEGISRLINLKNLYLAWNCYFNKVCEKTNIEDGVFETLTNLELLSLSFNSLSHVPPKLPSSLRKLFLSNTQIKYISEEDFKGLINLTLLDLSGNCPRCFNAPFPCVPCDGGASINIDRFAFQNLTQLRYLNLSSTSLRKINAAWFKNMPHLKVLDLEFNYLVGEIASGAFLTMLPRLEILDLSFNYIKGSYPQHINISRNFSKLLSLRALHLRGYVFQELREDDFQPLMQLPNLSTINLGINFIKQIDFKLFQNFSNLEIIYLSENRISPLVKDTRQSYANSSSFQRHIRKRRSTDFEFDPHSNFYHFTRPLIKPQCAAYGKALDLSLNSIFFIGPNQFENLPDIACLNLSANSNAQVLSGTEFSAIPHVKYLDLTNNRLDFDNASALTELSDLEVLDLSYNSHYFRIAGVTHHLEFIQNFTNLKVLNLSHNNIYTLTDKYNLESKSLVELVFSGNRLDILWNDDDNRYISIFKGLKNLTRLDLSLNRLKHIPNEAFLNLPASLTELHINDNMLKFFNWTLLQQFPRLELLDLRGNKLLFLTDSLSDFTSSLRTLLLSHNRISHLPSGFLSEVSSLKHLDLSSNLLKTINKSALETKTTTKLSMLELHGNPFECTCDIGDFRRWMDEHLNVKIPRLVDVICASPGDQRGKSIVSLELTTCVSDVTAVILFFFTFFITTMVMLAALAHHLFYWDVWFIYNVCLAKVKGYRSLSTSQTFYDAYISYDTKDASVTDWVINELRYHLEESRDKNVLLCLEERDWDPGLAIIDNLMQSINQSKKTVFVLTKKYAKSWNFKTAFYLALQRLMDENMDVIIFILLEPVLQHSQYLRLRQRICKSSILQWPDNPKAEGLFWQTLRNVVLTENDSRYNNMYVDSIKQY
Outline: as §1

[3] = biological target: T3, human TLR9 (Homo sapiens, UniProt Q9NR96); assay: TLR9 inhibition reporter assay (HEK-Blue cells, SEAP reporter, ODN2006 stimulation); details: HEK-Blue cells overexpressing human TLR9, SEAP reporter, ODN2006 5 nM
T3 construct: host or cells: HEK-Blue cells (HEK293-derived reporter line)
T3 sequence (Q9NR96 26-1032): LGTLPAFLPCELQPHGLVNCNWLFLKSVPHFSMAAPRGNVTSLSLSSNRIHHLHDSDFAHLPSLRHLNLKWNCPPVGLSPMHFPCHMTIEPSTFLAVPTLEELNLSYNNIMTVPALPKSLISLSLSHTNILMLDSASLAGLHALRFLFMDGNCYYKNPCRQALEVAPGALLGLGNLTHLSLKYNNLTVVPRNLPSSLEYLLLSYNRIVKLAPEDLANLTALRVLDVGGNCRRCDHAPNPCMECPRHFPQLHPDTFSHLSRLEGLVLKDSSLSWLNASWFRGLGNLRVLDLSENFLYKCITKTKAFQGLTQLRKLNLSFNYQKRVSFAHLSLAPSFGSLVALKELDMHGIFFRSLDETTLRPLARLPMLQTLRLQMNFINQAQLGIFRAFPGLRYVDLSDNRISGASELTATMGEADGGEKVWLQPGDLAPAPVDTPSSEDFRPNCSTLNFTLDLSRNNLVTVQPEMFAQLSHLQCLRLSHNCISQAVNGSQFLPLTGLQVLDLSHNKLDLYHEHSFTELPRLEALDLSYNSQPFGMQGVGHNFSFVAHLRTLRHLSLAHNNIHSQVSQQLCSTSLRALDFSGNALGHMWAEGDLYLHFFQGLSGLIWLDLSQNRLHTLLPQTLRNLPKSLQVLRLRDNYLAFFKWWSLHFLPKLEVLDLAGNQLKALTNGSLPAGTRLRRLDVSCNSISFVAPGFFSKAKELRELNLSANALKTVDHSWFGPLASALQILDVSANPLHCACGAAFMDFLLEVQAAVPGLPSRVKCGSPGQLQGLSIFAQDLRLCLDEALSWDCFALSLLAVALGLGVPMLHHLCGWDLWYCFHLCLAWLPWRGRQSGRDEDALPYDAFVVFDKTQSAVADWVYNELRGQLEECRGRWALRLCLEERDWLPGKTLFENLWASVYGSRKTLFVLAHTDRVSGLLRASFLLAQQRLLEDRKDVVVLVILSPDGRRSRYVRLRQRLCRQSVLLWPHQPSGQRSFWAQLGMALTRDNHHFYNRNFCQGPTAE
Outline: as §1

Structure (SMILES)	IC50 [1]	IC50 [2]	IC50 [3]
CCc1c(-c2ccnc3cnn(C)c23)[nH]c2ccc(C3CCNCC3)cc12 [Example 41, 7-(3-ethyl-5-(piperidin-4-yl)-1H-indol-2-yl)-1-methyl-1H-pyrazolo[4,3-b]pyridine]	100 to 1000 nM	100 to 1000 nM	1000 to 50000 nM
CC(C)c1c(-c2ccc(Cl)c3[nH]ncc23)[nH]c2ccc(C3CCN(C(=O)CN(C)C)CC3)cc12 [Example 556, 1-(4-(2-(7-chloro-1H-indazol-4-yl)-3-isopropyl-1H-indol-5-yl)piperidin-1-yl)-2-(dimethylamino)ethan-1-one]	100 to 1000 nM	100 to 1000 nM	1000 to 50000 nM
Cc1cn2cc(-c3[nH]c4ccc(C5CCN(C(=O)C[C@@H](C)O)CC5)cc4c3CC(F)F)ccc2n1 [Example 609, (R)-1-(4-(3-(2,2-difluoroethyl)-2-(2-methylimidazo[1,2-a]pyridin-6-yl)-1H-indol-5-yl)piperidin-1-yl)-3-hydroxybutan-1-one]	100 to 1000 nM	> 3130 nM	1000 to 50000 nM
COc1cc(-c2[nH]c3ccc(C4CCN(C5COC5)CC4)cc3c2C(C)C)cn2ccnc12 [Example 722, 6-(3-isopropyl-5-(1-(oxetan-3-yl)piperidin-4-yl)-1H-indol-2-yl)-8-methoxyimidazo[1,2-a]pyridine]	< 100 nM	< 100 nM	1000 to 50000 nM
Cc1cn2cc(-c3[nH]c4ccc(C5CCN(C(=O)CN(C)C)CC5)cc4c3C(C)C)cc(C(F)(F)F)c2n1 [Example 511, 2-(dimethylamino)-1-(4-(3-isopropyl-2-(2-methyl-8-(trifluoromethyl)imidazo[1,2-a]pyridin-6-yl)-1H-indol-5-yl)piperidin-1-yl)ethan-1-one]	< 100 nM	100 to 1000 nM	100 to 1000 nM
CC(C)c1c(-c2ccnc3[nH]ncc23)[nH]c2ccc(C3CCN(C4CCNCC4F)CC3)cc12 (stereo not drawn) [Example 827, 4-(5-(3′-fluoro-[1,4′-bipiperidin]-4-yl)-3-isopropyl-1H-indol-2-yl)-1H-pyrazolo[3,4-b]pyridine]	< 100 nM	< 100 nM	100 to 1000 nM
COc1cc(-c2[nH]c3ccc(C4CCN(C(=O)CN(C)C)CC4)cc3c2C(C)C)cn2ccnc12 [Example 558, 2-(dimethylamino)-1-(4-(3-isopropyl-2-(8-methoxyimidazo[1,2-a]pyridin-6-yl)-1H-indol-5-yl)piperidin-1-yl) ethan-1-one]	< 100 nM	< 100 nM	100 to 1000 nM
Cc1cc(-c2[nH]c3ccc(C4CCN(Cc5ccn(C)n5)CC4)cc3c2C(C)C)cc2cnnn12 [Example 891, 5-(3-isopropyl-5-(1-((1-methyl-1H-pyrazol-3-yl)methyl)piperidin-4-yl)-1H-indol-2-yl)-7-methyl-[1,2,3]triazolo[1,5-a]pyridine]	< 100 nM	< 100 nM	100 to 1000 nM
CCc1c(-c2ccnc3[nH]ncc23)[nH]c2ccc(C3CCN(CC(N)=O)CC3)cc12 [Example 289, 2-(4-(3-ethyl-2-(1H-pyrazolo[3,4-b]pyridin-4-yl)-1H-indol-5-yl)piperidin-1-yl)acetamide]	< 100 nM	< 100 nM	1000 to 50000 nM
Cc1cc(-c2[nH]c3ccc(C4CCN(C(=O)CCN5CCC(F)(F)C5)CC4)cc3c2C(C)C)cn2nnnc12 [Example 626, 3-(3,3-difluoropyrrolidin-1-yl)-1-(4-(3-isopropyl-2-(8-methyltetrazolo[1,5-a]pyridin-6-yl)-1H-indol-5-yl)piperidin-1-yl)propan-1-one]	< 100 nM	100 to 1000 nM	> 50000 nM
CC(C)c1c(-c2ccnc3[nH]ncc23)[nH]c2ccc(C3CCN(Cc4nccc5ccccc45)CC3)cc12 [Example 910, 1-((4-(3-isopropyl-2-(1H-pyrazolo[3,4-b]pyridin-4-yl)-1H-indol-5-yl)piperidin-1-yl)methyl)isoquinoline]	100 to 1000 nM	100 to 1000 nM	1000 to 50000 nM
